Experimental data as given in ChEMBL document CHEMBL3091344, “17(E)-picolinylidene androstane derivatives as potential inhibitors of prostate cancer cell growth: antiproliferative activity and molecular docking studies” (Bioorg Med Chem, 2013).

Experiments:
[1] = test system: MRC5; experiment: Cytotoxicity against human MRC5 cells assessed as growth inhibition after 48 hrs by SRB assay; type: cell-based; details: MRC5, 48 h
[2] = test system: PC-3; experiment: Cytotoxicity against human PC3 cells assessed as growth inhibition after 48 hrs by SRB assay; type: functional, cell-based; details: PC-3, 48 h
[3] = test system: MDA-MB-231; experiment: Cytotoxicity against ER-negative human MDA-MB-231 cells assessed as growth inhibition after 48 hrs by SRB assay; type: functional, cell-based; details: MDA-MB-231, 48 h
[4] = test system: MCF7; experiment: Cytotoxicity against ER-positive human MCF7 cells assessed as growth inhibition after 48 hrs by SRB assay; type: functional, cell-based; details: MCF7, 48 h
[5] = test system: MRC5; experiment: Cytotoxicity against human MRC5 cells assessed as growth inhibition after 48 hrs by MTT assay; type: cell-based; details: MRC5, 48 h
[6] = test system: HT-29; experiment: Cytotoxicity against human HT-29 cells assessed as growth inhibition after 48 hrs by MTT assay; type: functional, cell-based; details: HT-29, 48 h
[7] = test system: HeLa; experiment: Cytotoxicity against human HeLa cells assessed as growth inhibition after 48 hrs by MTT assay; type: functional, cell-based
[8] = test system: PC-3; experiment: Cytotoxicity against human PC3 cells assessed as growth inhibition after 48 hrs by MTT assay; type: functional, cell-based; details: PC-3, 48 h
[9] = test system: MDA-MB-231; experiment: Cytotoxicity against ER-negative human MDA-MB-231 cells assessed as growth inhibition after 48 hrs by MTT assay; type: functional, cell-based; details: MDA-MB-231, 48 h
[10] = test system: MCF7; experiment: Cytotoxicity against ER-positive human MCF7 cells assessed as growth inhibition after 48 hrs by MTT assay; type: functional, cell-based; details: MCF7, 48 h

Row | Structure (SMILES) | IC50 [1] | IC50 [2] | IC50 [3] | IC50 [4] | IC50 [5] | IC50 [6] | IC50 [7] | IC50 [8] | IC50 [9] | IC50 [10]
1 | C[C@]12CCC(=O)C=C1CC[C@@H]1[C@@H]2CC[C@]2(C)/C(=C/c3ccccn3)CC[C@@H]12 | > 100 µM | 12.9 µM | > 100 µM | > 100 µM | – | – | – | – | – | –
2 | C#CCC[C@@]1(C)C(=O)CC[C@@H]2[C@@H]1CC[C@@]1(C)[C@H]2CC[C@@]1(O)Cc1ccccn1 | – | – | – | – | > 100 µM | 6.5 µM | > 100 µM | > 100 µM | > 100 µM | > 100 µM
3 | C[C@]12CC[C@H]3[C@@H](CC[C@@]4(O)C=CCC[C@]34C)[C@@H]1CC/C2=C\c1ccccn1 | – | – | – | – | > 100 µM | 57.2 µM | 49.4 µM | > 100 µM | > 100 µM | > 100 µM
4 | C[C@]12CC[C@H]3[C@@H](CC[C@]45O[C@H]4C(=O)CC[C@]35C)[C@@H]1CC/C2=C\c1ccccn1 | – | – | – | – | > 100 µM | – | – | 14.3 µM | 88.3 µM | 50.7 µM
5 | C[C@]12CC[C@H]3[C@@H](CC[C@@]4(O)C=CCC[C@]34C)[C@@H]1CC[C@@]2(O)Cc1ccccn1 | – | – | – | – | > 100 µM | > 100 µM | > 100 µM | > 100 µM | > 100 µM | > 100 µM
6 | C[C@]12CC[C@H]3[C@@H](CC[C@]45O[C@H]4C(=O)CC[C@]35C)[C@@H]1CC[C@@]2(O)Cc1ccccn1 | – | – | – | – | > 100 µM | – | – | 65.5 µM | 10.4 µM | > 100 µM
7 | C[C@]12CC/C(=N\N)C=C1CC[C@@H]1[C@@H]2CC[C@]2(C)/C(=C/c3ccccn3)CC[C@@H]12 | – | – | – | – | > 100 µM | 51.7 µM | > 100 µM | 5.9 µM | 17.1 µM | 13.6 µM
8 | C[C@]12CC/C(=N\N)C=C1CC[C@@H]1[C@@H]2CC[C@@]2(C)[C@H]1CC[C@@]2(O)Cc1ccccn1 | – | – | – | – | > 100 µM | > 100 µM | > 100 µM | > 100 µM | 32.5 µM | 6.3 µM
9 | C[C@]12CCC(=O)C=C1CC[C@@H]1[C@@H]2CC[C@@]2(C)[C@H]1CC[C@@]2(O)Cc1ccccn1 | > 100 µM | > 100 µM | > 100 µM | > 100 µM | – | – | – | – | – | –
10 | C[C@]12CC[C@H](O)CC1=CC[C@@H]1[C@@H]2CC[C@]2(C)C(c3cccnc3)=CC[C@@H]12 [ABIRATERONE] | – | – | – | – | – | – | – | 9.32 µM | – | –
11 | COc1cccc2c1C(=O)c1c(O)c3c(c(O)c1C2=O)C[C@@](O)(C(=O)CO)C[C@@H]3O[C@H]1C[C@H](N)[C@H](O)[C@H](C)O1 [DOXORUBICIN] | – | – | – | – | – | 0.32 µM | – | – | – | 0.75 µM
12 | C[C@]12CCC(=O)C(O)=C1CC[C@@H]1[C@@H]2CC[C@]2(C)C(=O)CC[C@@H]12 [FORMESTANE] | – | – | – | – | > 100 µM | > 100 µM | – | – | – | > 100 µM
